What was measured:
Assay type in all cases: functional
IMR-32 [1] = test: Antiproliferative activity against human IMR-32 cells assessed as cellular metabolic activity at 1 mM incubated for 24 hrs by MTT assay
IMR-32 [2] = test: Antiproliferative activity against human IMR-32 cells assessed as cellular metabolic activity at 1 mM incubated for 24 hrs by resazurin assay
SK-N-SH [3] = test: Antiproliferative activity against human SK-N-SH cells assessed as cellular metabolic activity at 1 mM incubated for 24 hrs by resazurin assay
SK-N-SH [4] = test: Antiproliferative activity against human SK-N-SH cells assessed as cellular metabolic activity at 1 mM incubated for 24 hrs by MTT assay
B104 [5] = test: Antiproliferative activity against rat B104 cells assessed as cellular metabolic activity at 1 mM incubated for 24 hrs by resazurin assay
B104 [6] = test: Antiproliferative activity against rat B104 cells assessed as cellular metabolic activity at 1 mM incubated for 24 hrs by MTT assay

## N[C@@H](CCC(=O)N[C@@H](CSN=O)C(=O)NCC(=O)O)C(=O)O [S-NITROSOGLUTATHIONE]
IMR-32 [1]
  Activity: 14%
IMR-32 [2]
  Activity: 13%
SK-N-SH [3]
  Activity: 15%
SK-N-SH [4]
  Activity: 16%
B104 [5]
  Activity: 17%
B104 [6]
  Activity: 18%

From ChEMBL document CHEMBL5136975, “NO-HDAC dual inhibitors” (Eur J Med Chem, 2022)
